From ChEMBL document CHEMBL1914352, “Design, synthesis, docking, and biological evaluation of novel diazide-containing isoxazole- and pyrazole-based histone deacetylase probes” (J Med Chem, 2011)
Activity calls are given as the source filed them. The rule behind the calls is not given here.

Columns and labels:
HeLa = experiment: cells; assay type: functional, cell-based; details: Homo sapiens, 72 h
Histone deacetylase 7 = target: T1, Histone deacetylase 7 (Homo sapiens, UniProt Q8WUI4); experiment: Inhibition of human recombinant HDAC7 using fluorophore-conjugated substrate Boc-L-Lys(Ac)-AMC after 60 mins
T1 sequence (Q8WUI4 whole entry): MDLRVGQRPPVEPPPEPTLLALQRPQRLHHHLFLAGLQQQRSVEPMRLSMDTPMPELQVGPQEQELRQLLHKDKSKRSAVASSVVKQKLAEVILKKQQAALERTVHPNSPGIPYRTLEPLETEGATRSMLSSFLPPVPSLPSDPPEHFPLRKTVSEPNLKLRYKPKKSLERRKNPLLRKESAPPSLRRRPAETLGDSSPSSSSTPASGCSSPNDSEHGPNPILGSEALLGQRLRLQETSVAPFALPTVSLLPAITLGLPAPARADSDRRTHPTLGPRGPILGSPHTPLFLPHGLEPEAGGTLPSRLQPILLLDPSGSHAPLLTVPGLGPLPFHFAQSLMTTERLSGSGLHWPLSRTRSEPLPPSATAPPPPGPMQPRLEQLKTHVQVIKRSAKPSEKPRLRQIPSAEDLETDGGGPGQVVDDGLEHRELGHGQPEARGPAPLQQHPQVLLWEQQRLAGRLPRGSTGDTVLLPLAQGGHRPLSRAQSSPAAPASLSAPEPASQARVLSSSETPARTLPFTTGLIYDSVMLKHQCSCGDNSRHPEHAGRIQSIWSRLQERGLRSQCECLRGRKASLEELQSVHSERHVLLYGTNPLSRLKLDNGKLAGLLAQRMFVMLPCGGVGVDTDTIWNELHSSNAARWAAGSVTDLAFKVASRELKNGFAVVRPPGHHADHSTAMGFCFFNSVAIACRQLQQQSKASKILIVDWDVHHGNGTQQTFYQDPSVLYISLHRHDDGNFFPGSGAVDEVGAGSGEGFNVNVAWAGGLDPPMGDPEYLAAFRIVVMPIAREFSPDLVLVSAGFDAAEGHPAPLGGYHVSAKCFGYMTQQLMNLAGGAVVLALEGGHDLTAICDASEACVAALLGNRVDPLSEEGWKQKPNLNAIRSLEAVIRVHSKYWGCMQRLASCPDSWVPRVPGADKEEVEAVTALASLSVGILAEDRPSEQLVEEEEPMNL

[1] = target: Histone deacetylase 3/Nuclear receptor corepressor 2 (HDAC3/NCoR2) (Homo sapiens, UniProt O15379); experiment: Inhibition of human recombinant HDAC3/NCoR2 using fluorophore-conjugated substrate Boc-L-Lys(Ac)-AMC; assay type: protein-complex assay
[2] = target: T2, Protein deacetylase HDAC6 (Homo sapiens, UniProt Q9UBN7); experiment: Inhibition of human recombinant HDAC6 using fluorophore-conjugated substrate Boc-L-Lys(Ac)-AMC after 60 mins
T2 sequence (Q9UBN7 whole entry): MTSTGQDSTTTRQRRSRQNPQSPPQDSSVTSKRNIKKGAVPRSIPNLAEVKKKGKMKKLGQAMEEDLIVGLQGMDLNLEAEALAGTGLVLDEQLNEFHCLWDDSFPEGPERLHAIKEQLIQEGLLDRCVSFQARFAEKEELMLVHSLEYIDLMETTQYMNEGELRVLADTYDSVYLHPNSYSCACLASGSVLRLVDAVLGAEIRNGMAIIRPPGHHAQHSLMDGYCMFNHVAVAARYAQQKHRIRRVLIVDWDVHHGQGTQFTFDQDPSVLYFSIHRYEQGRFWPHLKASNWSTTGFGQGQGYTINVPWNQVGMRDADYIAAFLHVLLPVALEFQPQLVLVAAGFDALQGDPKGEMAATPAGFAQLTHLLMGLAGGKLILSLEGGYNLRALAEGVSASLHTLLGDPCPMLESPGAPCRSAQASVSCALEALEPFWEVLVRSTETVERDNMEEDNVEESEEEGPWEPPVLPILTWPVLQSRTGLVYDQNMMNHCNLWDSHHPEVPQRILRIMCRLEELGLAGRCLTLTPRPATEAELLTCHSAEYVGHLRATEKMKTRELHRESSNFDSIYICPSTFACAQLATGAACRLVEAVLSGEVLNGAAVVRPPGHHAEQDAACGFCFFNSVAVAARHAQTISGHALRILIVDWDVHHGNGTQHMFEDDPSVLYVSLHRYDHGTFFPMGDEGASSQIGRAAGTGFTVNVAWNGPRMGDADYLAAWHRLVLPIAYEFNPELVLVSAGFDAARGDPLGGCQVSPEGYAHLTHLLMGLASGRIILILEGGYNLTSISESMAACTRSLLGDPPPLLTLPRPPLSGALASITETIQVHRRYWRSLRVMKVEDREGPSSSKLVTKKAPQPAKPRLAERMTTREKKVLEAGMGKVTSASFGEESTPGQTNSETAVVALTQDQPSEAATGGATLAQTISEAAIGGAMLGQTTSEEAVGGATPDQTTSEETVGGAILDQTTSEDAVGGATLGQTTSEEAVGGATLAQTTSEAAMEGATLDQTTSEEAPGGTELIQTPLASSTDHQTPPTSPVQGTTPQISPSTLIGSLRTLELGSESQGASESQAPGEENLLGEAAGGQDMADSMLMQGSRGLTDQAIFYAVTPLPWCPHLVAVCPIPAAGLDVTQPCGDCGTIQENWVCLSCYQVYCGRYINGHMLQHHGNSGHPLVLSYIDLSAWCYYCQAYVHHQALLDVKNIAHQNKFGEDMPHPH

Histone deacetylase 8 = target: T3, Histone deacetylase 8 (Homo sapiens, UniProt Q9BY41); experiment: Inhibition of human recombinant HDAC8 using Fluor de Lys as substrate
T3 sequence (Q9BY41 whole entry): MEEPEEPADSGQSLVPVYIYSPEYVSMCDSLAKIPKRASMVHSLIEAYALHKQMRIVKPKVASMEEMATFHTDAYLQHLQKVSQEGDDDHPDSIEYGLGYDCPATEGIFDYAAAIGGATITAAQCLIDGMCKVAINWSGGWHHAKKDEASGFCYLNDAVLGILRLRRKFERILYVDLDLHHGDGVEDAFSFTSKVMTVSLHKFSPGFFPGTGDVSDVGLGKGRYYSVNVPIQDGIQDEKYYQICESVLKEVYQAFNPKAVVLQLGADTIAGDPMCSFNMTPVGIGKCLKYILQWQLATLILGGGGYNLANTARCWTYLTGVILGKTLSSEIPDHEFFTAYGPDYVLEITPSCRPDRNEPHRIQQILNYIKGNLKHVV

Histone deacetylase 2 = Histone deacetylase 2 (Homo sapiens, UniProt Q92769)
SH-SY5Y = experiment: cells; assay type: functional, cell-based; details: Homo sapiens, 24 h
[3] = target: Histone deacetylase (Homo sapiens) (UniProt Q13547+O15379+Q9UBN7+Q92769+Q9UQL6+Q8WUI4+Q9BY41+Q96DB2+P56524+Q9UKV0+Q969S8); experiment: Inhibition of HDAC in retinoic acid-differentiated human SH-SY5Y cells assessed as increase in histone H4 acetylation at 1 uM after 24 hrs by Western blot analysis in presence of 100 uM LY294002; assay type: cell-based

Chain of Histone deacetylase 3/Nuclear receptor corepressor 2 (HDAC3/NCoR2) (O15379 whole entry): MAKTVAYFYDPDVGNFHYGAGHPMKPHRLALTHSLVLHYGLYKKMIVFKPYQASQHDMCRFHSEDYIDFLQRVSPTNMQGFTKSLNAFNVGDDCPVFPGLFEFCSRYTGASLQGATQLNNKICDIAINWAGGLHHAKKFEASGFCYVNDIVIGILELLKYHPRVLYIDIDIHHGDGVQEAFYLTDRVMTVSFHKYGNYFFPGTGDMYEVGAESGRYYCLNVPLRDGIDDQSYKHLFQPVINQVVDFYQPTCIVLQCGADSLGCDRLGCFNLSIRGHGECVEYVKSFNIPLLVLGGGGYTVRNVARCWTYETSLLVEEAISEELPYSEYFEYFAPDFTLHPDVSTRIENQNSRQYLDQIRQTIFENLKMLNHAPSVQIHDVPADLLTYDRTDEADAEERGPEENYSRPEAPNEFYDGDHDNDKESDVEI
Chain of Histone deacetylase 3/Nuclear receptor corepressor 2 (HDAC3/NCoR2) (Q9Y618 whole entry, further chain): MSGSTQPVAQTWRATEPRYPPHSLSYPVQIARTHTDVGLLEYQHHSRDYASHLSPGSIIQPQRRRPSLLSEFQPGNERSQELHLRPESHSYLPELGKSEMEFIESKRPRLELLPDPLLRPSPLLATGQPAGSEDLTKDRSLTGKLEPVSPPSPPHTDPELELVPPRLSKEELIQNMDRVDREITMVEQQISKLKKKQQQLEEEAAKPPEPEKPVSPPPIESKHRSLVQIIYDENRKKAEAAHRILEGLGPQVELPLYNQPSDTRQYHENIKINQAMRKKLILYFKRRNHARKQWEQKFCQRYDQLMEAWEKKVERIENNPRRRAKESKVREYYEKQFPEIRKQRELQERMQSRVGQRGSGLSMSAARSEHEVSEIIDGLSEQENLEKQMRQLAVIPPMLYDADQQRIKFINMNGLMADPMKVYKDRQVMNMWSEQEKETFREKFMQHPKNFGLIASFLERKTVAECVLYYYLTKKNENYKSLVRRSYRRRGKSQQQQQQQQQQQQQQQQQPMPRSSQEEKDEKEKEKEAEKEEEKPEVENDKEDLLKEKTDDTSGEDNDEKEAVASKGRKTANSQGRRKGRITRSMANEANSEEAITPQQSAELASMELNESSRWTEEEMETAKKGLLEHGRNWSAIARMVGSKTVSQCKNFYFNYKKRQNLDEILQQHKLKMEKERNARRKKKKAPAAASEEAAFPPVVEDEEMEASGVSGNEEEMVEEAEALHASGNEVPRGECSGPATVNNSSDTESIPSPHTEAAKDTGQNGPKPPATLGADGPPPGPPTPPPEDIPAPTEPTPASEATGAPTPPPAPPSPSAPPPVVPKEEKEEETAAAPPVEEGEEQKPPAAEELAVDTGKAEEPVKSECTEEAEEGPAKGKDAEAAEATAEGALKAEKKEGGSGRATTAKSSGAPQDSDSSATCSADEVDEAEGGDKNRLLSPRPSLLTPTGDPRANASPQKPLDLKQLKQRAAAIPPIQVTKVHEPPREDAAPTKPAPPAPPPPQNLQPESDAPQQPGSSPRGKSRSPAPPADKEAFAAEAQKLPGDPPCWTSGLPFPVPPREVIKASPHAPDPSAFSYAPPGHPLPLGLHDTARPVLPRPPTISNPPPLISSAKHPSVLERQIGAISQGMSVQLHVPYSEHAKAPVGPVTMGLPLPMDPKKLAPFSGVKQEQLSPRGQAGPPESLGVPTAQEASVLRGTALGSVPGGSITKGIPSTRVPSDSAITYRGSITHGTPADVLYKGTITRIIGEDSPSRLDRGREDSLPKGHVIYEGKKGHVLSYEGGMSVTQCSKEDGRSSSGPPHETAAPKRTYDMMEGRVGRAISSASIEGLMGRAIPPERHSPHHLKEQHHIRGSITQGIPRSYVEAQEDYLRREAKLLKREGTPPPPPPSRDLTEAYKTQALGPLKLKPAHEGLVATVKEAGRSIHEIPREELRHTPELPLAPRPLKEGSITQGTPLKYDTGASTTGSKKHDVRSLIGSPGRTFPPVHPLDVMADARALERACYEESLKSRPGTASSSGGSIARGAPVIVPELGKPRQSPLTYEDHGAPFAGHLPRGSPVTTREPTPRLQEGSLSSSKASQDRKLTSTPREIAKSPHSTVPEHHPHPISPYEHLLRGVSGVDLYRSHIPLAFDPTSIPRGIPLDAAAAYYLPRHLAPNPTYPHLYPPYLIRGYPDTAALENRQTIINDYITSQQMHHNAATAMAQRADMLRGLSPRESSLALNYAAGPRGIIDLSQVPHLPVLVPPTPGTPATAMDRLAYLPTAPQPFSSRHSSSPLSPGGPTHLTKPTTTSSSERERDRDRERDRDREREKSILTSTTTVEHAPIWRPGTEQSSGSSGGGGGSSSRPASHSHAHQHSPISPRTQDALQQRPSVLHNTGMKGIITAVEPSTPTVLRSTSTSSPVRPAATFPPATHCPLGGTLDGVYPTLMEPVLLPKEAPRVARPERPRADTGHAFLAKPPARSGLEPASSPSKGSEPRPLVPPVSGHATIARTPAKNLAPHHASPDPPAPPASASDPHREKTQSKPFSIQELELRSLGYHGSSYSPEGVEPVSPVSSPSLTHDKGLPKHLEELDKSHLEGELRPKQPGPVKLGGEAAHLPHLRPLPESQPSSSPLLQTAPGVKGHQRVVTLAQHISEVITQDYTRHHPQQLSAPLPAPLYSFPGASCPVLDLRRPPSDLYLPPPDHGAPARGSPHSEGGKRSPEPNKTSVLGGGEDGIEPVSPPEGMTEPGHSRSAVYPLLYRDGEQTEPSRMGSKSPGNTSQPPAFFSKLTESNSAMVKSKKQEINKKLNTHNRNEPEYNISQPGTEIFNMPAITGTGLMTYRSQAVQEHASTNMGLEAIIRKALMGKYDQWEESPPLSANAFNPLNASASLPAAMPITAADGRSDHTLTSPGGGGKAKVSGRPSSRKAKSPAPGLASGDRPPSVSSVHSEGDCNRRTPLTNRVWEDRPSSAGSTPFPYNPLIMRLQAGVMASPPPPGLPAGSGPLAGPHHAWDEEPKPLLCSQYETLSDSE
Chain of Histone deacetylase 2 (Q92769 whole entry): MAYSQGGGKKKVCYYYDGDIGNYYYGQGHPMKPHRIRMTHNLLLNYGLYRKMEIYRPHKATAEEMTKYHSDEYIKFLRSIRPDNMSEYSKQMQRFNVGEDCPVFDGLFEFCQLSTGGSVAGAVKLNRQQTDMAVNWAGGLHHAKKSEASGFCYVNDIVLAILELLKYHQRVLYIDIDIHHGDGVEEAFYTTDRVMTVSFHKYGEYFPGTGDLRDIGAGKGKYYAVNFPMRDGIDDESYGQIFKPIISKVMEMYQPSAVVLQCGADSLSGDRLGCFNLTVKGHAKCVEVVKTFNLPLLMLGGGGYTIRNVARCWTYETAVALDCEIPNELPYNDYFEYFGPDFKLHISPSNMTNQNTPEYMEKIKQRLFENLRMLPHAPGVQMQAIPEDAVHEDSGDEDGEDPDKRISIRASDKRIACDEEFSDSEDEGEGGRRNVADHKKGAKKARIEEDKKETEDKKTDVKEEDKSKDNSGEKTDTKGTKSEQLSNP

EC50 (HeLa) | IC50 (Histone deacetylase 7) | IC50 [1] | IC50 [2] | IC50 (Histone deacetylase 8) | IC50 (Histone deacetylase 2) | EC50 (SH-SY5Y) | inhibition [3] | Structure (SMILES)
15000 nM | 4510 nM | 128 nM | 274 nM | 17 nM | 1000 nM | > 50000 nM | Active | [N-]=[N+]=NCc1cc(Cn2cc(NC(=O)CCCCCCC(=O)NO)cn2)cc(N=[N+]=[N-])c1
4700 nM | 2230 nM | 45 nM | 47 nM | 651 nM | 780 nM | > 50000 nM | Active | [N-]=[N+]=NCc1cc(N=[N+]=[N-])cc(C(=O)Nc2ccc(-c3cc(C(=O)NCCCCCCC(=O)NO)no3)cc2)c1
